This is an account of results in patent publication US8097282B2, “Methods of administering liquid droplet aerosols of nanoparticulate drugs” (Alkermes Pharma Ireland Limited, priority 1995, dated 2012).

Data set [1] is classed as physicochemical. Here is the method:
Nanoparticle Preparation and Characterization. Nanoparticles were prepared by media milling a suspension of 5% beclomethasone diproprionate in an aqueous solutions of PVA. Thus, the PVA was the surface modifier. The resulting particle size distribution was determined by dynamic light scattering. The particle size distribution was periodically monitored throughout the course of the study. […] In addition, particle size of the diluted dispersions remained constant for at least the duration of the experiment.

In data set [2] the test system is rabbit's pulmonary region. Description: Computed tomography (CT) after administration of ultrasonically nebulized formulation to an intubated anesthetized rabbit. In kind it is in vivo. Particulars: ultrasonic nebulizer, several minutes, 30% suspension in 6% F108. The protocol:
(§1) In this example, a suspension of WIN 68209 (30%) in aqueous F108 surfactant (6%) was prepared by conventional roller milling techniques (jar mill, zirconium silicate beads, 7 days milling time). The mean particle size of the resultant distribution was 196 nm. The formulation was administered to an anesthetized rabbit as follows: Several mL of formulation was placed in an ultrasonic nebulizer (DeVilbiss AeroSonic™) which was connected in-line with a mechanical ventilator, terminating in a suitable endotracheal tube. The rabbit was then intubated and administered the nebulized formulation for several minutes.

A short description of data set [3]: Mean particle size of roller-milled WIN 68209 suspension. In kind it is physicochemical. Particulars: 30% suspension in aqueous F108 surfactant (6%), 7 days roller milling. The protocol:
as §1

Turning to `CCC(=O)OCC(=O)[C@@]1(OC(=O)CC)[C@@H](C)C[C@H]2[C@@H]3CCC4=CC(=O)C=C[C@]4(C)[C@@]3(Cl)[C@@H](O)C[C@@]21C.O` [beclomethasone diproprionate, Beclomethasone diproprionate], in data set [1], the chemical stability entry is reported as “neither was there any evidence of chemical instability” and the particle size stability result is recorded as “remained constant throughout the course of the study”. Also, in data set [1] (nanoparticles in 2.5% polyvinyl alcohol), the particle size distribution is given as 0.26±0.13 micrometer.

With `CCOC(=O)C=C(COC(=O)c1c(I)c(NC(C)=O)c(I)c(NC(C)=O)c1I)OCC` [WIN 68209, benzoic acid, 3,5-bis(acetylamino)-2,4,6triodo-, 4(ethyl-3-ethoxy-2-butenoate) ester], in data set [2], the “CT scans of pulmonary region after nebulized administration” value is on record as “showed the presence of radiopaque contrast agent in the region”. This compound also showed a mean particle size in data set [3] of 196 nm.
